Patent US4205952A, “Specific binding assay method and reagent means” (Technion Research & Development Foundation Ltd., priority 1976, dated 1980)

What was measured:
[1] = system: sepharose-bound anti-E2 (HS)-COOH antibodies; test: Inhibition and cross-reaction experiments with E2(HS)-CONH-CH2-Fc; format: binding, rabbit
Experimental: A fixed volume (30 μl) of a solution of iron-labelled estradiol hemisuccinate, E2 (HS)-CONH-CH2 Fc, of suitable concentration (selected from the results obtained in Step (ii) above) was mixed with a constant volume (30 μl) of solutions of various concentrations of unlabelled hapten, estradiol hemisuccinate (or estrone-17-(0-Carboxymethyl)oxime, E1 (Ox)-COOH). This mixture was added to a constant volume (60 μl) of the sepharose-bound antibodies, Vortex-mixed for 1 min. and allowed to incubate at room temperature for 30 min. The Vortex-mixing was repeated at intervals of 10 min. The assay mixture was then centrifuged for 1 min. at 3000 r.p.m. Aliquots (30 μl) were extracted with an Eppendorf pipette and injected into the graphite tube of the AA instrument. The following controls were taken through the same procedure to determine specificity: (a) a suspension of sepharose-bound antibodies without addition of metal-labelled hapten; (b) the mixtures of metal-labelled and non-labelled haptens, without addition of the sepharose-bound antibodies; (c) the mixture of metal-labelled and non-labelled haptens with addition of sepharose-bound γ-globulins of normal rabbit serum.

[2] = system: Anti-BSA antiserum; test: Interaction of cobalt-labelled BSA conjugate with anti-BSA antibodies, supernatant Co by AAS; format: binding
Experimental: (1) Anti-BSA antiserum (100 μl) was added to each of four tubes numbered 1 to 4. The same volume (100 μl) of 0.01 M phosphate buffer was added to each of additional four tubes, numbered 5 to 8.
(2) A fixed volume (100 μl) of four dilutions of BSA-Cobalt labelled conjugate, containing 0.23, 0.47, 0.94 and 1.88 μg Co/ml (or 0.8, 1.6, 3.1 and 6.2 μg BSA conjugate/100 μl of sample) added to the tubes 1 to 4 respectively and similarly to tubes 5 to 8 respectively.
(3) The solutions were mixed on a Vortex, allowed to incubate for 1 hr. at 37° C. and then for 48 hrs. at 4° C.
(4) The tubes were then centrifuged for 30 min. at 4° C.
(5) The supernatant was analyzed for Co by atomic absorption.
The readings obtained from tubes 5 through 8 served as calibrating controls. The readings from tubes 1 through 4 then indicated the amount of free cobalt-labelled BSA left in solution (by difference the "bound" BSA antigen could be determined). The atomic absorption measurements were interpolated into the calibration curve and gave 0.00, 0.06, 0.59 and 1.25 μg Co/ml of "free" hapten, equivalent to a concentration of 0,0.2,2.0 and 4.3 μg BSA conjugate/100 μl of original sample in tubes 1,2,3 and 4 respectively.

C[C@]12CC[C@@H]3c4ccc(O)cc4CC[C@H]3[C@@H]1CC[C@@H]2OC(=O)CCC(=O)O [E2 (HS)--COOH, Estradiol-17β-hemisuccinate]
Inhibition of E2 (HS)--CONH--CH2 Fc (27.5 × 10^-7 M) ([1]; unlabelled hapten 3.6 × 10^-7 M): 8.5% | Inhibition of E2 (HS)--CONH--CH2 Fc (27.5 × 10^-7 M) ([1]; unlabelled hapten 7.2 × 10^-7 M): 17.5% | Inhibition of E2 (HS)--CONH--CH2 Fc (27.5 × 10^-7 M) ([1]; unlabelled hapten 15.0 × 10^-7 M (E2 column)): 21.5% | Inhibition of E2 (HS)--CONH--CH2 Fc (27.5 × 10^-7 M) ([1]; unlabelled hapten 36.0 × 10^-7 M): 43.5% | Inhibition of E2 (HS)--CONH--CH2 Fc (27.5 × 10^-7 M) ([1]; unlabelled hapten 72.0 × 10^-7 M): 48.0% | Inhibition of E2 (HS)--CONH--CH2 Fc (27.5 × 10^-7 M) ([1]; unlabelled hapten 150.0 × 10^-7 M (E2 column)): 56.0% | Inhibition of E2 (HS)--CONH--CH2 Fc (27.5 × 10^-7 M) ([1]; unlabelled hapten 300.0 × 10^-7 M): 63.5%

BSA-Cobalt labelled conjugate: Bovine serum albumin labelled with carboxycobalticenium N-succinimide ester, about 35 haptens per mole
"free" hapten in supernatant ([2]; tube 1: conjugate 0.23 μg Co/ml, 100 μl + 100 μl antiserum, 1 hr 37° C., 48 hrs 4° C.): 0.00 μg Co/ml | "free" hapten in supernatant ([2]; tube 2: conjugate 0.47 μg Co/ml): 0.06 μg Co/ml | "free" hapten in supernatant ([2]; tube 3: conjugate 0.94 μg Co/ml): 0.59 μg Co/ml | free conjugate, equivalent concentration ([2]; tube 4: 6.2 μg BSA conjugate/100 μl added): 4.3 μg BSA conjugate/100 μl of original sample | "free" hapten in supernatant ([2]; tube 4: conjugate 1.88 μg Co/ml): 1.25 μg Co/ml

C[C@]12CC[C@@H]3c4ccc(O)cc4CC[C@H]3[C@@H]1CCC2=NOCC(=O)O [E1 (OX)--COOH, Extrone oxime-0-carboxymethyl]
Inhibition of E2 (HS)--CONH--CH2 Fc (27.5 × 10^-7 M), cross-reaction ([1]; unlabelled hapten 3.75 × 10^-7 M): 0.5% | Inhibition of E2 (HS)--CONH--CH2 Fc (27.5 × 10^-7 M), cross-reaction ([1]; unlabelled hapten 7.5 × 10^-7 M): 3.0% | Inhibition of E2 (HS)--CONH--CH2 Fc (27.5 × 10^-7 M), cross-reaction ([1]; unlabelled hapten 15.0 × 10^-7 M (E1 column)): 6.5% | Inhibition of E2 (HS)--CONH--CH2 Fc (27.5 × 10^-7 M), cross-reaction ([1]; unlabelled hapten 37.5 × 10^-7 M): 9.5% | Inhibition of E2 (HS)--CONH--CH2 Fc (27.5 × 10^-7 M), cross-reaction ([1]; unlabelled hapten 75.0 × 10^-7 M): 25.5% | Inhibition of E2 (HS)--CONH--CH2 Fc (27.5 × 10^-7 M), cross-reaction ([1]; unlabelled hapten 150.0 × 10^-7 M (E1 column)): 50.5%
